# Measurements from patent US20220057378A1, “MICROBIAL MICROFLUIDIC BIOSENSOR” (priority 2015, published 2022).
# Experiments:
# [1] = tested on: pRS18; assay: SVM classification of GFP sensor responses (toxin / no toxin); type: cell-based, E. coli; settings: from classification accuracy and ROC curves; plasmid pRS18
# Text: (§1) Computational models to determine the threshold of detection for specific sensors based on models of experimental GFP responses. We used machine learning techniques to determine the relationships between the GFP output signal and the presence of a toxin. We have created a database containing the collected sensor response data. We have quantified the GFP threshold of detection for each sensor construct. We have constructed Receiver Operating Characteristic (ROC) curves for each sensor to achieve robust sensing. We constructed machine learning models capable of inferring the relationships between the GFP sensor responses and the presence or absence of a toxin at a given concentration. […] The optimal meta-parameters of the SVM classifier were determined by applying a 5-crossvalidation during the training phase (2). In order to have a reliable estimate of the performance of the model when deployed in real environments, we measured its performance over a set of samples (test patterns) not seen during the training phase. The SVM's performance was determined by the percentage of test samples correctly labeled as toxin/no toxin (classification accuracy). […]
# (§2) In order to have a reliable estimate of the performance of the model when deployed in real environments, we measured its performance over a set of samples (test patterns) not seen during the training phase. […]
# [2] = tested on: pZA47a; assay: as above; type: cell-based, E. coli; settings: from classification accuracy and ROC curves
# Text: as §1, §2
smiles,measurement,setting,value
[As] [Arsenic],threshold of detection,[1],0.2 µM
same,threshold of detection,[2],0.1 µM
